# Experimental data published in US11091488B2 (MISSION THERAPEUTICS LIMITED, priority 2015, dated 2021).
# pIC50: −log10 of the molar value.
# Biological target: USP30 (Homo sapiens (Human), UniProt Q70CQ3)
# Test: USP30 biochemical IC50 assay
# Settings: read-out: IC50 range; fluorescence polarisation, TAMRA labelled peptide linked to ubiquitin; 30 min pre-incubation, read after 2 hr
# Protocol: USP30 Biochemical IC50 Assay
# Dilution plates were prepared at 21 times the final concentration (2100 μM for a final concentration of 100 μM) in 50% DMSO in a 96-well polypropylene V-bottom plate (Greiner #651201). A typical 8-point dilution series to be 100, 30, 10, 3, 1, 0.3, 0.1, 0.03 μM final. Reactions were performed in duplicate in black 384 well plates (small volume, Greiner 784076) in a final reaction volume of 21 μl. Either 1 μl of 50% DMSO or diluted compound was added to the plate. USP30 was diluted in reaction buffer (40 mM Tris, pH 7.5, 0.005% Tween 20, 0.5 mg/ml BSA, 5 mM—beta-mercaptoethanol) to the equivalent of 0.05 μl/well and 10 μl of diluted USP30 was added to the compound. Enzyme and compound were incubated for 30 min at room temp. Reactions were initiated by the addition of 50 nM of TAMRA labelled peptide linked to ubiquitin via an iso-peptide bond as fluorescence polarisation substrate. Reactions were read immediately after addition of substrate and following a 2 hr incubation at room temperature. Readings were performed on a Pherastar Plus (BMG Labtech). λ Excitation 540 nm; λ Emission 590 nm.
# Sequence of USP30 (Q70CQ3 57-517): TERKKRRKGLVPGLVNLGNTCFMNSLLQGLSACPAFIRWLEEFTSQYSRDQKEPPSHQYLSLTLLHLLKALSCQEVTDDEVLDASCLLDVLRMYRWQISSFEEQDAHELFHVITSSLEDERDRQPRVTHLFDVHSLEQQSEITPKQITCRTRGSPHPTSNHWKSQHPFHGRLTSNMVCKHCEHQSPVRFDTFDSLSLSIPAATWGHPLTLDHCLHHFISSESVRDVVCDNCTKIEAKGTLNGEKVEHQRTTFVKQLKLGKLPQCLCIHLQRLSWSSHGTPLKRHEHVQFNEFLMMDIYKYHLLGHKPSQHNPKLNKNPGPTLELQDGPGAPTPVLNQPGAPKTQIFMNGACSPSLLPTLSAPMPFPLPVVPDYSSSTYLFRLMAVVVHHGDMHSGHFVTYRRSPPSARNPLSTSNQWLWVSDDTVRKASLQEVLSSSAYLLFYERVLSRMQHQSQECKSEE
row,pIC50,Compound
1,6.00 to 7.00,"N#CN1CC[C@H](N2CCN(c3cccc(-c4ccccn4)c3)S2(=O)=O)C1 [Example 47, (S)-3-(1,1-dioxido-5-(3-(pyridin-2-yl)phenyl)-1,2,5-thiadiazolidin-2-yl)pyrrolidine-1-carbonitrile]"
2,6.00 to 7.00,"N#CN1CC[C@@H](N2CCN(c3nccc(N4CCOCC4)n3)S2(=O)=O)C1 [Example 51, (R)-3-(5-(4-morpholinopyrimidin-2-yl)-1,1-dioxido-1,2,5-thiadiazolidin-2-yl)pyrrolidine-1-carbonitrile]"
3,6.00 to 7.00,"CN1c2cc(-c3ccccc3)ccc2CN([C@@H]2CCN(C#N)C2)S1(=O)=O [Example 73, (R)-3-(1-methyl-2,2-dioxido-7-phenyl-1,4-dihydro-3H-benzo[c][1,2,6]thiadiazin-3-yl)pyrrolidine-1-carbonitrile]"
4,6.00 to 7.00,"CO[C@@H]1CCN(c2cccc(N3CCN([C@@H]4CCN(C#N)C4)S3(=O)=O)c2)C1 [Example 53, (R)-3-(5-(3-((R)-3-methoxypyrrolidin-1-yl)phenyl)-1,1-dioxido-1,2,5-thiadiazolidin-2-yl)pyrrolidine-1-carbonitrile]"
5,6.00 to 7.00,"N#CN1CC[C@@H](NS(=O)(=O)N2CCc3c(-c4ccccc4)cccc32)C1 [Example 64, (R)—N-(1-cyanopyrrolidin-3-yl)-4-phenylindoline-1-sulfonamide]"
6,> 7.00,"C[C@H]1CN(C#N)C[C@@H]1N1CCN(c2ccc(-c3ccccc3)cc2)S1(=O)=O [Example 39, (3R,4S)-3-(5-([1,1′-biphenyl]-4-yl)-1,1-dioxido-1,2,5-thiadiazolidin-2-yl)-4-methylpyrrolidine-1-carbonitrile]"
7,6.00 to 7.00,"C[C@H]1CN(C#N)C[C@@H]1N1CCN(c2cccc(N3CCOCC3)c2)S1(=O)=O [Example 41, (3S,4R)-3-methyl-4-(5-(3-morpholinophenyl)-1,1-dioxido-1,2,5-thiadiazolidin-2-yl)pyrrolidine-1-carbonitrile]"

# The next lines start with the compound.
row,Compound,pIC50
1,"N#CN1CC[C@@H](N2CCN(c3ccc(N4CCOCC4)cc3)S2(=O)=O)C1 [Example 22, (R)-3-(5-(4-morpholinophenyl)-1,1-dioxido-1,2,5-thiadiazolidin-2-yl)pyrrolidine-1-carbonitrile]",6.00 to 7.00
2,N#CN1CC[C@H](N2CCN(c3ccc(-c4ccccc4)cc3)S2(=O)=O)C1 [Example 34],> 7.00
3,"N#CN1CC[C@@H](N2CCN(C3CCN(c4ccccn4)C3)S2(=O)=O)C1 (stereo partly drawn) [Example 9, (3R)-3-(1,1-dioxido-5-(1-(pyridin-2-yl)pyrrolidin-3-yl)-1,2,5-thiadiazolidin-2-yl)pyrrolidine-1-carbonitrile]",6.00 to 7.00
4,"COc1ccc(N2CCN([C@@H]3CCN(C#N)C3)S2(=O)=O)cc1N1CCOCC1 [Example 8, (R)-3-(5-(4-methoxy-3-morpholinophenyl)-1,1-dioxido-1,2,5-thiadiazolidin-2-yl)pyrrolidine-1-carbonitrile]",6.00 to 7.00
5,"N#CN1CC[C@H](N2CCN(c3ccccc3)S2(=O)=O)C1 [Example 31, (S)-3-(1,1-dioxido-5-phenyl-1,2,5-thiadiazolidin-2-yl)pyrrolidine-1-carbonitrile]",5.00 to 6.00
6,"N#CN1CC[C@@H](N2CCN(c3ccc(-c4ccccc4)cc3)S2(=O)=O)C1 [Example 11, (R)-3-(5-([1,1′-biphenyl]-4-yl)-1,1-dioxido-1,2,5-thiadiazolidin-2-yl)pyrrolidine-1-carbonitrile]",> 7.00
7,"N#CN1CCC(N2CCCN(c3ccccc3)S2(=O)=O)C1 (centres unmarked) [Example 38, 3-(1,1-dioxido-6-phenyl-1,2,6-thiadiazinan-2-yl)pyrrolidine-1-carbonitrile]",6.00 to 7.00
8,"N#CN1CC[C@H](N2CCN(c3cccc(-c4ccno4)c3)S2(=O)=O)C1 [Example 1, (S)-3-(5-(3-(isoxazol-5-yl)phenyl)-1,1-dioxido-1,2,5-thiadiazolidin-2-yl)pyrrolidine-1-carbonitrile]",6.00 to 7.00
9,"N#CN1CC[C@@H](N2CCCN(c3cccc(N4CCOCC4)c3)S2(=O)=O)C1 [Example 25, (R)-3-(6-(3-morpholinophenyl)-1,1-dioxido-1,2,6-thiadiazinan-2-yl)pyrrolidine-1-carbonitrile]",5.00 to 6.00
10,"N#CN1CC[C@@H](N2CCN(c3cccc(-c4ccncc4)c3)S2(=O)=O)C1 [Example 19, (R)-3-(1,1-dioxido-5-(3-(pyridin-4-yl)phenyl)-1,2,5-thiadiazolidin-2-yl)pyrrolidine-1-carbonitrile]",> 7.00
